Source: patent US20120190752A1, “EXO-S-MECAMYLAMINE METHOD, USE, AND COMPOUND FOR TREATMENT” (Targacept Inc., priority 2009, published 2012)

System: subjects with major depressive disorder (MDD) who were inadequate responders to citalopram
Test: HAMD Anxiety/Somatization Factor, Phase 2b add-on trial
Assay type: in vivo, human
Description: In more detail, a multi-center double-blind, randomized, placebo-controlled, parallel group, flexible dose titration study of TC-5214 as adjunctive therapy in subjects with major depressive disorder (MDD) who were inadequate responders to citalopram was conducted in centers in the US and India. The study consisted of a screening period, baseline/washout period, open-label phase, double-blind phase, and a follow-up visit. Subject participation in the study could continue for up to 16 weeks of treatment. Following a washout period of up to 28 days for other antidepressants, subjects with MDD and a MADRS total score >/=28 and a Clinical Global Impression-Severity (CGI-S) score >/=4 were enrolled on Day 1 into an open-label citalopram-only phase of the study. This phase lasted 8 weeks, with citalopram (CIT) dose increased from a once-daily dose of 20 mg (Day 1 through Week 4) to 40 mg (Week 4 through Week 8). A total of 579 subjects entered the open-label citalopram phase. At Week 8, subjects who tolerated 40 mg CIT, but whose MADRS score was reduced <50% from baseline and no lower than 17, and CGI-S≧4, were considered inadequate responders. These subjects (n=270) were randomized in a double-blind fashion to receive either placebo or TC-5214-23 as add-on therapy to continued CIT. The double-blind phase of the study also lasted 8 weeks (Week 8 to Week 16). Study drug, TC-5214-23 or placebo, was started at 2 mg daily (1 mg twice per day [BID] dosing), added on to continuing CIT (40 mg PO qd). After 2 weeks of treatment, the dose of TC-5214 could be increased to 4 mg (2 mg BID) or continued unchanged, with up-titration based upon good tolerability and inadequate therapeutic response. After a further 2 weeks, the dose of TC-5214 could be increased again to 8 mg (4 mg BID) if judged appropriate by the investigator, based upon good tolerability and inadequate therapeutic response. At any time during the double-blind phase of the study, placebo or TC-5214-23 could be reduced to the previous dose level following the emergence of unacceptable adverse events (AEs). […] At this follow-up, any signs or symptoms of relapse were evaluated. If a subject was prematurely discontinued from the study between Week 8 and Week 16 for any reason, the investigator was to make every effort to perform all evaluations as per protocol, assuming the subject had reached the end of the double-blind add-on treatment phase. These evaluations were to be made as soon as possible and within 2 weeks of discontinuation. […] There was no meaningful difference in results as a function of age, gender, site, or smoking status. With regard to efficacy endpoints, the following tables present efficacy used in the ITT (Intent-to-Treat) and PP (Per Protocol) populations unless otherwise specific. The primary inference was based upon Week 16 visit using the ITT population. Change from baseline was obtained by subtracting the baseline values from the individual on-treatment values. Change from Week 16 was obtained by subtracting the Week 16 values from the individual follow-up visit (Week 18/19) values. If either the baseline or Week 16 or on-treatment or follow-up value was missing, the change from baseline or Week 16 value was also set to missing. To account for missing data, the last observation carry forward (LOCF) method was used for the ITT and PP populations. Thus, the last available on-therapy observation for a subject, including the observation at premature discontinuation, was used to estimate subsequent missing data points. For efficacy, baseline data were collected at Week 8 in the double-blind augmentation phase electronic case report form pages. Analysis for the secondary endpoints were performed on both the ITT and PP populations. The secondary endpoints were as follows in Table 5. [table]

[1] = ITT, Double Blind Week 16 LOCF (change from Week 8)
[2] = ITT, Double Blind Week 18 LOCF (Follow-up), change from Week 16
[3] = PP, Double Blind Week 16 LOCF (change from Week 8)
[4] = PP, Double Blind Week 18 LOCF (Follow-up), change from Week 16

CNC1(C)C2CCC(C2)C1(C)C (stereo in doubt) [TC-5214, (S)—N,2,3,3-tetramethylnorbornan-2-amine]
HAMD anxiety/somatization subscale score change from baseline compared with placebo (ITT and PP populations, result in words): statistically significant decreases (improvements)
HAMD anxiety/somatization Mean Difference between TC-5214 and Placebo [1]: 1.93
HAMD anxiety/somatization subscale Adjusted Mean change [1]: −4.58
HAMD anxiety/somatization Mean Difference between TC-5214 and Placebo [2]: −0.00
HAMD anxiety/somatization subscale Adjusted Mean change [2]: −0.14
HAMD anxiety/somatization Mean Difference between TC-5214 and Placebo [3]: 1.92
HAMD anxiety/somatization subscale Adjusted Mean change [3]: −4.93
HAMD anxiety/somatization Mean Difference between TC-5214 and Placebo [4]: 0.01
HAMD anxiety/somatization subscale Adjusted Mean change [4]: −0.16
